Values of other authors as cited in patent publication US20040247633A1, “Novel dermatological composition” (EBERSYTES, LLC, priority 2003, published 2004).

Settings: metal chelate

CC(O)C(=O)[O-].CC(O)C(=O)[O-].[Cu+2] (stereo not shown) [Copper lacate]
Affinity Constant: 10^10-10^12
